Data published in patent US10155742B2, “Halofuginol derivatives and their use in cosmetic and pharmaceutical compositions” (President and Fellows of Harvard College, priority 2012, dated 2018).

Legend:
P. falciparum (Dd2) = assay: In vitro P. falciparum viability assay with excess proline; assay type: cell-based, Plasmodium falciparum; settings: Dd2 strain in red blood cells, relative to unmodified RPMI, FIG. 23
Method: The activity of halofuginone and amodiaquine as inhibitors of P. falciparum growth was tested in erythrocytes in RPMI with or without excess amino acids as indicated, and IC50 values were normalized to IC50 values obtained under standard conditions using unmodified RPMI (numbers in bold). The absolute IC50 values for halofuginone and amodiaquine for RPMI are reported in parentheses. Fold amino acid indicated (e.g., “5×”) is relative to the concentration of the respective amino acid in RPMI. Fold concentration of D-Pro and L-Orn are relative to L-Pro.
In vitro potency against P. falciparum (DD2) was assessed using a modified version of the method of Plouffe and coworkers (Plouffe et al. Proc. Natl. Acad. Sci. USA 105:9059-64 (2008)). Parasites were cultured in the presence of drug in RPMI (Sigma) containing 4.16 mg/ml Albumax in a total volume of 50 μl at a 2.5% hematocrit and an initial parasitemia of 0.3% in black Greiner GNF clear-bottom plates. Cultures were incubated 72 hr at 37° C. under […], 4% CO2 and 3% O2. At the end of the incubation, SYBR green was added to a dilution of 1:10,000 and plates were stored overnight (or until ready to be read) at −80° C. Just before reading, plates were centrifuged at 700 rpm and fluorescence was read using 480 nm excitation and 530 nm emission frequencies. Compound concentrations that inhibit parasite replication reduce the fluorescence intensity of SYBR green bound to parasite DNA.

[1] = test system: Th17 cell differentiation (primary murine CD4+ CD25- T cells); settings: from PCT/US08/09774; read-out: 50% inhibition of Th17 cell development; cited from earlier work
[2] = test system: CD4+ T cell, CD8+ T cell, and B220+ B cell activation; settings: from PCT/US08/09774; cited from earlier work

Structure (SMILES): O=C(C[C@H]1NCCC[C@@H]1O)Cn1cnc2cc(Br)c(Cl)cc2c1=O (racemic) [HF, 7-bromo-6-chloro-3-[3-(3-hydroxy-2-piperidinyl)-2-oxopropyl]-4(3H)-quinazolinone]
- fold increase of effective IC50 on addition of 5× proline (P. falciparum (Dd2)): roughly 7 fold
- IC50 [1]: ~3 nM
- concentration that generally inhibits CD4+ T cell, CD8+ T cell, and B220+ B cell activation [2]: 20 to 40 nM
